# Measurements taken from patent publication US20080102497A1, “ENZYMATIC HYDROLYSIS OF STARCH” (priority 2006, published 2008).
# Values joined by “and” are separate entries in the source; they are usually repeats but may differ in a detail not shown here. Equal values may be shown once.
# How the values were obtained:
# Format in all cases: biochemical
# [1] = test system: glucoamylase from Rhizopus sp.; assay: effect of pre-incubation of Mn^++ with enzyme or starch on raw corn starch conversion; conditions: for % conversion of the starch substrate: reaction 37° C., pH 5.3
# Method: The glucoamylase from Rhizopus sp. Or raw corn starch substrate were pre-incubated in a sodium acetate buffer, pH 5.3, with 1.0 mM Mn^++ for 0, 20, 40, or 60 min at 22° C. The enzyme pre-incubation solutions were then combined with 15 mg raw corn starch to provide a reaction mixture that was incubated at 37° C. for 5 minutes. The starch pre-incubation solutions were combined with an enzyme solution containing the glucoamylase from Rhizopus sp and buffer to provide a reaction mixture that was incubated at 37° C. for 5 minutes or 10 minutes.
# [2] = test system: enzyme mixture of purified glucoamylase from mushroom and purified α-amylase from barley; assay: hydrolysis of raw corn starch by enzyme mixture, reducing sugar by DNSA; conditions: summary of Table 2
# Method: Enzyme mixture was also pre-incubated with 10 mM Fe^++, Cu^++, Ca^++, Mg^++, or disodium ethylenediamine-tetraacetic acid (EDTA). Thereafter, 40 μl of each pre-incubation solution was added to 15 mg raw corn starch, and the reaction mixture incubated at 37° C. for 20 minutes. The control reaction mixture contained substrate, enzyme, and buffer but no additional metal ions. The starch hydrolysis reaction was stopped by combining the reaction mixture with a solution containing 3,5 dinitrosalicylic acid (DNSA) and heating for 30 min at 85° C. The absorbance of the control and test samples was measured at 562 nm to monitor the amount of reducing sugar in each sample.
# [3] = molecular target: α-amylase from Bacillus amyloliquefaciens (Bacillus amyloliquefaciens, UniProt P00692); assay: hydrolysis of cooked dent corn starch; conditions: 0.1 mM Mn^++; cooked dent corn starch 0.5%; pH 5.2; 37° C., 10 min
# Chain of α-amylase from Bacillus amyloliquefaciens (P00692 32-514): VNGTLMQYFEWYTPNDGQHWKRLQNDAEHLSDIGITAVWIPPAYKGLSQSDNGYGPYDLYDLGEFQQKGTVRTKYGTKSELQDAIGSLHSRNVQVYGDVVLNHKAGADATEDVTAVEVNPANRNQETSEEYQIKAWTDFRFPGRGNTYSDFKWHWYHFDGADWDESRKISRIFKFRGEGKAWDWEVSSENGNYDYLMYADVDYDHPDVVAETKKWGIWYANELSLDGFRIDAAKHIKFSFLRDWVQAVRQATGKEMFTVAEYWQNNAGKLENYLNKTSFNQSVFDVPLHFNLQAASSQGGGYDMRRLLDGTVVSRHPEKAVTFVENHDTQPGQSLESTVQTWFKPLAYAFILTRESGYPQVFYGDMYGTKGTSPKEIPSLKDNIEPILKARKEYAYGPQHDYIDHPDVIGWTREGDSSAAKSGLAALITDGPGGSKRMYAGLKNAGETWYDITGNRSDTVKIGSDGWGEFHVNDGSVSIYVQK
# Method: The separate reaction mixtures were incubated at 37° C. for 10 minutes. The control reaction mixtures contained enzyme, buffer, and starch but no manganese ion. The starch hydrolysis reaction was stopped by combining the reaction mixture with a solution containing DNSA and heating for 30 min at 85° C. The absorbance of the control and test samples was measured at 562 nm to monitor the amount of reducing sugar in each sample.
# [4] = molecular target: T1, β-amylase Type II-B from barley (Hordeum vulgare, UniProt P16098); assay: hydrolysis of raw corn starch or soluble starch; conditions: for % Relative Activity: pH 5.3, 37° C., 20 min
# T1 construct: purchased Sigma Sigma-7130
# T1 sequence (P16098 whole entry): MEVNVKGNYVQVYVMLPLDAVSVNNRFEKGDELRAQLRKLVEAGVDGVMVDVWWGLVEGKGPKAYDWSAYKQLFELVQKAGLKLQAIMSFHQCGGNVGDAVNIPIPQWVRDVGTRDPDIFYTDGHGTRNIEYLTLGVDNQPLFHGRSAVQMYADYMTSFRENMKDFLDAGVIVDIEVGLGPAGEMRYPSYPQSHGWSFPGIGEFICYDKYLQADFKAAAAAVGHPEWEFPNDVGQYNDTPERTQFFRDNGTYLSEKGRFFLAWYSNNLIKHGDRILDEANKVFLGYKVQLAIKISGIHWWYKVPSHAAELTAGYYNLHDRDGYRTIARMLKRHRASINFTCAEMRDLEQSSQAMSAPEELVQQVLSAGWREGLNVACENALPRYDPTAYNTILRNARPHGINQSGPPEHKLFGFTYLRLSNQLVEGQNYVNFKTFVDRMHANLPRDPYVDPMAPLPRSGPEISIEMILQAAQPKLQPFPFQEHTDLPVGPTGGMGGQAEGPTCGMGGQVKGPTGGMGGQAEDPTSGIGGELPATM
# Method: Each of the buffered enzyme solutions was separately added to 15 mg raw corn starch or 0.6 mg soluble starch, and the reaction mixtures incubated at 37° C. for 20 minutes. The control reaction mixture contained substrate, enzyme, and buffer but no manganese ion. The starch hydrolysis reaction was stopped by combining the reaction mixture with a solution containing DNSA and heating for 30 min at 85° C. The absorbance of the control and test samples was measured at 562 nm to monitor the amount of reducing sugar in each sample.
structure (smiles),measurement,setting,value
"[Mn+2] [Mn^++, manganese ions]",% conversion of the starch substrate,"[1]; 1.0 mM Mn^++ pre-incubated with glucoamylase 0 min at 22° C., 5 min, raw corn starch",0.42%
same,% conversion of the starch substrate,"[1]; 1.0 mM Mn^++ pre-incubated with glucoamylase 20 min at 22° C., 5 min, raw corn starch",0.35%
same,% conversion of the starch substrate,"[1]; 1.0 mM Mn^++ pre-incubated with glucoamylase 40 min at 22° C., 5 min, raw corn starch",0.38%
same,% conversion of the starch substrate,"[1]; 1.0 mM Mn^++ pre-incubated with glucoamylase 60 min at 22° C., 5 min, raw corn starch",0.38%
same,% conversion of the starch substrate,"[1]; 1.0 mM Mn^++ pre-incubated with raw corn starch 0 min at 22° C., 5 min",0.51%
same,% conversion of the starch substrate,"[1]; 1.0 mM Mn^++ pre-incubated with raw corn starch 0 min at 22° C., 10 min",0.73%
same,% conversion of the starch substrate,"[1]; 1.0 mM Mn^++ pre-incubated with raw corn starch 20 min at 22° C., 5 min",0.48%
same,% conversion of the starch substrate,"[1]; 1.0 mM Mn^++ pre-incubated with raw corn starch 20 min at 22° C., 10 min",0.79%
same,% conversion of the starch substrate,"[1]; 1.0 mM Mn^++ pre-incubated with raw corn starch 40 min at 22° C., 5 min",0.50%
same,% conversion of the starch substrate,"[1]; 1.0 mM Mn^++ pre-incubated with raw corn starch 40 min at 22° C., 10 min",0.81%
same,% conversion of the starch substrate,"[1]; 1.0 mM Mn^++ pre-incubated with raw corn starch 60 min at 22° C., 5 min",0.58%
same,% conversion of the starch substrate,"[1]; 1.0 mM Mn^++ pre-incubated with raw corn starch 60 min at 22° C., 10 min",0.80%
same,effect of pre-incubation on activation by Mn^++ (in words),"[1]; pre-incubation of Mn^++ with enzyme or with starch, 0-60 min",does not significantly influence the activation effect
same,effect on hydrolysis of raw corn starch (in words),[2],enhances the hydrolysis of raw corn starch
same,Relative Activity,[3],121.0% and 120.4%
same,% Relative Activity,"[4]; 0.01 mM Mn^++, raw corn starch",99.5%
same,% Relative Activity,"[4]; 0.01 mM Mn^++, soluble starch",112.5%
same,% Relative Activity,"[4]; 0.1 mM Mn^++, raw corn starch",118.4%
same,% Relative Activity,"[4]; 0.1 mM Mn^++, soluble starch",119.2%
same,% Relative Activity,"[4]; 1 mM Mn^++, raw corn starch",133.3%
same,% Relative Activity,"[4]; 1 mM Mn^++, soluble starch",155.7%
same,% Relative Activity,"[4]; 10 mM Mn^++, raw corn starch",152.2%
same,% Relative Activity,"[4]; 10 mM Mn^++, soluble starch",157.3%
same,effect on hydrolysis of starch (in words),[4]; raw corn starch and soluble starch,enhances the hydrolysis of both raw corn starch and soluble starch
